Data published in patent publication US20050074901A1, “Methods and assays for detecting and quantifying the human p53 inducible gene protein” (priority 2002, published 2005).
Read-outs that look alike come from different tables or passages of the source.

What was measured:
[1] = system: PIG3; details: cited from earlier work
[2] = system: PIG3; assay: Adriamycin upregulation of PIG3 over time and dose (PIG3 ELISA, FIG. 4A); assay type: cell-based, human
Excerpt: The invention features a PIG3 ELISA that is a “sandwich” enzyme immunoassay employing two mouse monoclonal antibodies and methods for using the assay. A monoclonal antibody, specific for the human PIG3 protein, is immobilized onto the surface of microtiter wells provided. A kit for the immunoassay, comprising two monoclonal antibodies X1155P and X1156M, is available from Exalpha Biologicals, Inc. in Boston, Mass. As the Frontier Assay Kit. The sample to be assayed and the biotinylated detector monoclonal antibody are pipetted into the wells and allowed to incubate for two hours, during which time any PIG3 present binds to the capture and detecting antibodies. […]
The horseradish peroxidase catalyzes the conversion of the chromogenic substrate tetra-methylbenzidine (TMB) from a colorless solution to a blue solution (or yellow after the addition of stop reagent), the intensity of which is proportional to the amount of PIG3 protein in the sample. The colored reaction product is quantified using a spectrophotometer.
Quantitation is achieved by the construction of a standard curve using known concentrations of PIG3 (provided lyophilized). By comparing the absorbance obtained from a sample containing an unknown amount of PIG3 with that obtained from the standards, the concentration of PIG3 in the sample is determined. […]

In the case of `COc1cccc2c1C(=O)c1c(O)c3c(c(O)c1C2=O)C[C@@](O)(C(=O)CO)C[C@@H]3O[C@H]1C[C@H](N)[C@H](O)[C@H](C)O1` [Adriamycin, adriamycin], the PIG3 induction ([1]; cell lines with wild-type p53 genes) is listed as “strongly induced”, the PIG3 induction ([1]; cell with mutant p53) is listed as “not in the cell with mutant p53” and the PIG3 level [2] is listed as “upregulation of PIG3”.
